ChEMBL document CHEMBL4699547, “Design, synthesis, and multitargeted profiling of N-benzylpyrrolidine derivatives for the treatment of Alzheimer's disease” (Bioorg Med Chem, 2020)
Active and inactive are the calls of the source. No cut-off for these calls is given here.

What was measured:
[1] = biological target: Beta-secretase 1 (Homo sapiens, UniProt P56817); assay: Inhibition of human BACE-1 by FRET assay
[2] = biological target: T1, Acetylcholinesterase (Homo sapiens, UniProt P22303); assay: Inhibition of human AChE by Ellman's method
[3] = biological target: T2, Cholinesterase (Homo sapiens, UniProt P06276); assay: Inhibition of human BChE by Ellman's method
[4] = test system: Rattus norvegicus; assay: Ex vivo inhibition of AChE in brain of scopolamine-induced Wistar rat model of amnesia at 2.5 to 10 mg/kg, po pretreated for 7 days followed by scopolamine challenge using acetylthiocholine iodide as substrate by Ellman's method; format: functional, organism-based; conditions: dose mg/kg 2.5-10, time 7.0 day
[5] = test system: Rattus norvegicus; assay: Antioxidant activity in scopolamine-induced Wistar rat model of amnesia assessed as increase in SOD level at 2.5 to 10 mg/kg, po pretreated for 7 days followed by scopolamine challenge […]; format: functional, organism-based; conditions: dose mg/kg 2.5-10, time 7.0 day
[6] = Permeability of the compound at 25 ug/ml after 18 hrs by PAMPA-BBB assay
[7] = test system: SH-SY5Y; assay: Neuroprotective activity against amyloid beta (1 to 42)-induced oxidative stress in human SH-SY5Y cells assessed as effect on cell viability at 10 to 80 uM measured after 24 hrs by MTT assay (reference value: 62.1 %); format: functional; conditions: dose microM 10-80
[8] = test system: Rattus norvegicus; assay: Cognitive enhancing effect in po dosed scopolamine-induced Wistar rat model of amnesia assessed as increase in spontaneous alteration pretreated for 7 days followed by scopolamine challenge by Y-maze test; format: functional, organism-based; conditions: dose mg/kg 5-10, time 7.0 day
[9] = Acute toxicity in Wistar rat assessed as abnormal signs at 175 to 1750 mg/kg, po measured up to 14 days by OCED guideline method; format: organism-based; conditions: in vivo, 336 h, dose 175-1750 mg/kg, time <=14 day
[10] = test system: Rattus norvegicus; assay: Cognitive enhancing effect in scopolamine-induced Wistar rat model of amnesia assessed as effect on total arm entries at 2.5 to 10 mg/kg, po pretreated for 7 days followed by scopolamine challenge by Y-maze test; format: functional, organism-based; conditions: dose mg/kg 2.5-10, time 7.0 day
[11] = Acute toxicity in po dosed Wistar rat assessed as maximum tolerated dose by OCED guideline method; format: organism-based; conditions: in vivo
[12] = test system: Rattus norvegicus; assay: Cognitive enhancing effect in scopolamine-induced Wistar rat model of amnesia assessed as increase in spontaneous alteration at 10 mg/kg, po pretreated for 7 days followed by scopolamine challenge by Y-maze test; format: functional, organism-based; conditions: time 7.0 day
[13] = test system: Rattus norvegicus; assay: Antioxidant activity in scopolamine-induced Wistar rat model of amnesia assessed as decrease in MDA level at 2.5 to 10 mg/kg, po pretreated for 7 days followed by scopolamine challenge […]; format: functional, organism-based; conditions: dose mg/kg 2.5-10, time 7.0 day
[14] = species on record: Rattus norvegicus; conditions: Wistar, dose 5.0 mg/kg, time 7.0 day
[15] = test system: Rattus norvegicus; assay: Cognitive enhancing effect in scopolamine-induced Wistar rat model of amnesia assessed as effect on total arm entries at 5 mg/kg, po pretreated for 7 days followed by scopolamine challenge by Y-maze test; format: functional, organism-based; conditions: time 7.0 day
[16] = biological target: T2, Cholinesterase; assay: Inhibition of BChE (unknown origin)
[17] = test system: Rattus norvegicus; assay: (§1) Improvement in learning and spatial memory in icv infused amyloid beta (1 to 42)-induced rat model of Alzheimer's disease assessed as reduction in escape latency at 10 mg/kg, po administered for 9 consecutive days starting from 7 days post surgery and measured daily for 5 days by Morris water maze test; format: functional, organism-based; conditions: time 9.0 day
[18] = test system: Rattus norvegicus; assay: Cognitive enhancing effect in scopolamine-induced Wistar rat model of amnesia assessed as effect on total arm entries at 10 mg/kg, po pretreated for 7 days followed by scopolamine challenge by Y-maze test; format: functional, organism-based; conditions: time 7.0 day
[19] = AUC (0 to 48 hrs) in Wistar rat at 10 mg/kg, po measured up to 48 hrs; format: ADME, organism-based; set-up: route oral, dose 10 mg/kg, time <=48; conditions: in vivo
[20] = test system: Rattus norvegicus; assay: as §1, with “increase” for “reduction”, “number of platform crossing” for “escape latency”; format: functional, organism-based; conditions: time 9.0 day
[21] = Half life in Wistar rat at 10 mg/kg, po measured up to 48 hrs; format: ADME, organism-based; conditions: in vivo
[22] = Cmax in Wistar rat at 10 mg/kg, po measured up to 48 hrs; format: ADME, organism-based; set-up: route oral, dose 10 mg/kg, time <=48; conditions: in vivo
[23] = MRT in Wistar rat at 10 mg/kg, po measured up to 48 hrs; format: ADME, organism-based; conditions: in vivo
[24] = Tmax in Wistar rat at 10 mg/kg, po measured up to 48 hrs; format: ADME, organism-based; conditions: in vivo
[25] = biological target: T1, Acetylcholinesterase; assay: Mixed type inhibition of human AChE assessed as decrease in Vmax using varying level of acetylthiocholine iodide as substrate by Lineweaver-Burk plot analysis
[26] = biological target: T1, Acetylcholinesterase; assay: Mixed type inhibition of human AChE assessed as dissociation constant using varying level acetylthiocholine iodide as substrate by Dixon plot analysis
[27] = biological target: T1, Acetylcholinesterase; assay: Mixed type inhibition of human AChE assessed as increase in Km using varying level acetylthiocholine iodide as substrate by Lineweaver-Burk plot analysis
[28] = biological target: Cholinesterase (Equus caballus, UniProt P81908); assay: Inhibition of equine serum BuChE by Ellman's method
Sequence of Cholinesterase (Equus caballus, UniProt P81908) (P81908 whole entry): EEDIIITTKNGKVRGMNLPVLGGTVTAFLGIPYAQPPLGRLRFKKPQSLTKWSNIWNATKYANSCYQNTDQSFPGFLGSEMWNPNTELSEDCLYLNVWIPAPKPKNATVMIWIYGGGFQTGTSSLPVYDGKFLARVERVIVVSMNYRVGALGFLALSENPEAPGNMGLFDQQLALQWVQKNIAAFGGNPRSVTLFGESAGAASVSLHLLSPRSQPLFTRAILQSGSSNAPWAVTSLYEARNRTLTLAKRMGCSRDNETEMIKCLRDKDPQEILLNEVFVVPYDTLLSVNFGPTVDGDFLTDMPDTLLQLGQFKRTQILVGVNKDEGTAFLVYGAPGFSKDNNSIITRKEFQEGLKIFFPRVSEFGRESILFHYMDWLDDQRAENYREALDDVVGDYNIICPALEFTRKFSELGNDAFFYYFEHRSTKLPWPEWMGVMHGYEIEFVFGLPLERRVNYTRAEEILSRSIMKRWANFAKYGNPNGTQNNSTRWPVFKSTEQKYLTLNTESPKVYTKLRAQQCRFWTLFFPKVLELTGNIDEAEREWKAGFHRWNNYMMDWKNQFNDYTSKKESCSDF

Sequence of Beta-secretase 1 (P56817 whole entry): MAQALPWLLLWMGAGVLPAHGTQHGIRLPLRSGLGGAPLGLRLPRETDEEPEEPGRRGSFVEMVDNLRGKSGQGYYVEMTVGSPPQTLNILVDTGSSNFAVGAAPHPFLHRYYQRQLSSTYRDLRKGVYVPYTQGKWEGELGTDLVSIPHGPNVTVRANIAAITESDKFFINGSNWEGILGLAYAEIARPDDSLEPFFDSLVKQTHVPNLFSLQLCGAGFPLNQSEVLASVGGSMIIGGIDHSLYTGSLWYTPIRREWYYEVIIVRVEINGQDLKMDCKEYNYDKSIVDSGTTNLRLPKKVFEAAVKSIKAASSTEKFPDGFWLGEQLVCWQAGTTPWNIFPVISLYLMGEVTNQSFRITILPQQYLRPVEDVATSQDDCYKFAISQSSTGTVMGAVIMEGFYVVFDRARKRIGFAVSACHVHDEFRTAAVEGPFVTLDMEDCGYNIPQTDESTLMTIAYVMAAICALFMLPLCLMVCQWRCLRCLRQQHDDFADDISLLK
T2 sequence (P06276 whole entry): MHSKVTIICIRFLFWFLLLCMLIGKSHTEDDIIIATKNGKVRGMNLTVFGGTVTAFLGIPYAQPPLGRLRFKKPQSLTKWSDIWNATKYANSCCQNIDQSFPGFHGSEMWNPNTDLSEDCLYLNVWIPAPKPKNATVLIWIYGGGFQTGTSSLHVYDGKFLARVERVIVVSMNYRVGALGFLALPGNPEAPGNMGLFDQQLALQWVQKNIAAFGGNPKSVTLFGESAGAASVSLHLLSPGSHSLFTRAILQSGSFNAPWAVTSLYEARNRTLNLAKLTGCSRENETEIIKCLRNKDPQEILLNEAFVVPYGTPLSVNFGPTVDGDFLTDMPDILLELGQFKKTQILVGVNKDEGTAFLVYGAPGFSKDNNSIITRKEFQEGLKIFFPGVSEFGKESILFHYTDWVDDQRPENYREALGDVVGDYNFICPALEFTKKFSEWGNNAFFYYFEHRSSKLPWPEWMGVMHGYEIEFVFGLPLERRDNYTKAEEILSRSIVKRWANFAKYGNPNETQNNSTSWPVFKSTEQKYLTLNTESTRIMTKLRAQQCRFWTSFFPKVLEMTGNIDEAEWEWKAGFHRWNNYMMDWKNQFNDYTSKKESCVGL
T1 sequence (P22303 whole entry): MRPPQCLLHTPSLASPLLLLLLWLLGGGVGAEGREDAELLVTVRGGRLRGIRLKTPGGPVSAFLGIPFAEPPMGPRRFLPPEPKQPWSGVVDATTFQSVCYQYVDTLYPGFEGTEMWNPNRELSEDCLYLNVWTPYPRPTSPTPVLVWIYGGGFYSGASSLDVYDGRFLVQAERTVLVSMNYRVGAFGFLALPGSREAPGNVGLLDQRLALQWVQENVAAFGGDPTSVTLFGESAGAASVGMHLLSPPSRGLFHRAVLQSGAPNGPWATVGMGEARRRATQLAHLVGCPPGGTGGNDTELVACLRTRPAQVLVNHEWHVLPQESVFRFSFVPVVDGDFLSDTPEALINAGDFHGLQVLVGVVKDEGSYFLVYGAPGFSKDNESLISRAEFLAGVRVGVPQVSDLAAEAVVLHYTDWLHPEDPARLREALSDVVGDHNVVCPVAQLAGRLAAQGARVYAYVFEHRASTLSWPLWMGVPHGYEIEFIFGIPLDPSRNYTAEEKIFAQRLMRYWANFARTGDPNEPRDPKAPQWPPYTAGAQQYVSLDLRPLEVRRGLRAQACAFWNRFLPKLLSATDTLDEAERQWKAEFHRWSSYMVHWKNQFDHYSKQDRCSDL

SMILES: c1ccc(CNC2CCN(Cc3ccccc3)C2)cc1 (stereo not drawn)
- IC50 [1]: 2420 nM
- IC50 [2]: 1130 nM
- IC50 [3]: 1570 nM

SMILES: Fc1ccc(CNC2CCN(Cc3ccccc3)C2)c(F)c1 (stereo not drawn)
- inhibition [4]: Active
- Activity [5]: Active
- Papp at 18 h, 25 ug/ml [6]: 5.8 ×10⁻⁶ cm/s
- Activity [7]: 66.8%
- Activity [8]: Dose-dependent effect
- IC50 [1]: 97 nM
- IC50 [2]: 69 nM
- Activity [9]: Non-Toxic
- IC50 [3]: 127 nM
- Activity [10]: inactive
- MTD [11]: 1750 mg/kg
- Activity [12]: Active
- Activity [13]: Active

SMILES: COc1cc2c(cc1OC)C(=O)C(CC1CCN(Cc3ccccc3)CC1)C2 (stereo not drawn)
- inhibition [14]: Active
- Activity [15]: inactive

SMILES: FC(F)(F)Oc1ccc(/C=N\C2CCN(Cc3ccccc3)C2)cc1 (stereo not drawn)
- IC50 [1]: 2090 nM
- IC50 [2]: 864 nM
- IC50 [3]: 695 nM

SMILES: COc1cc(CNC2CCN(Cc3ccccc3)C2)cc(OC)c1OC (stereo not drawn)
- IC50 [1]: 844 nM
- IC50 [2]: 3130 nM
- IC50 [3]: 3220 nM

SMILES: Cc1cccc(/C=N\C2CCN(Cc3ccccc3)C2)c1 (stereo not drawn)
- IC50 [2]: > 10000 nM
- IC50 [3]: 5790 nM

SMILES: c1ccc(CC2CCCN(CCNC3CCN(Cc4ccccc4)C3)C2)cc1 (stereo not drawn)
- IC50 [16]: 1840 nM

SMILES: Oc1ccccc1CNC1CCN(Cc2ccccc2)C1 (stereo not drawn)
- IC50 [1]: 2370 nM
- IC50 [2]: 2260 nM
- IC50 [3]: 2730 nM

SMILES: Oc1ccc(CNC2CCN(Cc3ccccc3)C2)c(O)c1 (stereo not drawn)
- IC50 [1]: 482 nM
- IC50 [2]: 1520 nM
- IC50 [3]: 2690 nM

SMILES: Clc1ccc(CNC2CCN(Cc3ccccc3)C2)cc1 (stereo not drawn)
- Papp at 18 h, 25 ug/ml [6]: 4.1 ×10⁻⁶ cm/s
- IC50 [1]: 163 nM
- IC50 [2]: 178 nM
- IC50 [3]: 265 nM

SMILES: C(=N/C1CCN(Cc2ccccc2)C1)/c1ccccc1 (stereo not drawn)
- IC50 [1]: 4380 nM
- IC50 [2]: 4120 nM
- IC50 [3]: 2680 nM

SMILES: COc1cccc(/C=N\C2CCN(Cc3ccccc3)C2)c1OC (stereo not drawn)
- IC50 [2]: > 10000 nM
- IC50 [3]: 4270 nM

SMILES: COc1cc(/C=N\C2CCN(Cc3ccccc3)C2)cc(OC)c1OC (stereo not drawn)
- IC50 [1]: > 10000 nM
- IC50 [2]: 7790 nM
- IC50 [3]: 3500 nM

SMILES: Fc1ccc(/C=N\C2CCN(Cc3ccccc3)C2)cc1 (stereo not drawn)
- IC50 [1]: 1960 nM
- IC50 [2]: 1070 nM
- IC50 [3]: 1050 nM

SMILES: FC(F)(F)c1ccc(/C=N\C2CCN(Cc3ccccc3)C2)cc1 (stereo not drawn)
- IC50 [1]: 683 nM
- IC50 [2]: 1040 nM
- IC50 [3]: 2150 nM

SMILES: COc1cccc(CNC2CCN(Cc3ccccc3)C2)c1OC (stereo not drawn)
- IC50 [1]: 2860 nM
- IC50 [2]: 4380 nM
- IC50 [3]: 5460 nM

SMILES: Cc1cccc(CNC2CCN(Cc3ccccc3)C2)c1 (stereo not drawn)
- IC50 [2]: > 10000 nM
- IC50 [3]: 2970 nM

SMILES: Oc1ccc(CNC2CCN(Cc3ccccc3)C2)cc1 (stereo not drawn)
- IC50 [1]: 968 nM
- IC50 [2]: 1750 nM
- IC50 [3]: 1930 nM

SMILES: O=[N+]([O-])c1ccc(/C=N\C2CCN(Cc3ccccc3)C2)cc1 (stereo not drawn)
- IC50 [1]: 3780 nM
- IC50 [2]: 2460 nM
- IC50 [3]: 2350 nM

SMILES: Cc1ccc(/C=N\C2CCN(Cc3ccccc3)C2)cc1 (stereo not drawn)
- IC50 [2]: > 10000 nM
- IC50 [3]: 4860 nM

SMILES: O=[N+]([O-])c1ccc(CNC2CCN(Cc3ccccc3)C2)cc1 (stereo not drawn)
- IC50 [1]: 1810 nM
- IC50 [2]: 741 nM
- IC50 [3]: 1360 nM

SMILES: Brc1ccc(/C=N\C2CCN(Cc3ccccc3)C2)cc1 (stereo not drawn)
- IC50 [1]: 1750 nM
- IC50 [2]: 1300 nM
- IC50 [3]: 1190 nM

SMILES: Fc1ccc(/C=N\C2CCN(Cc3ccccc3)C2)c(F)c1 (stereo not drawn)
- IC50 [1]: 2650 nM
- IC50 [2]: 965 nM
- IC50 [3]: 1390 nM

SMILES: FC(F)(F)Oc1ccc(CNC2CCN(Cc3ccccc3)C2)cc1 (stereo not drawn)
- Activity [17]: Active
- Activity [18]: inactive
- AUC(0-t) [19]: 5460 ng·h/mL
- Activity [20]: Active
- inhibition [4]: Active
- Activity [5]: Active
- Papp at 18 h, 25 ug/ml [6]: 6.9 ×10⁻⁶ cm/s
- Activity [7]: 71.5%
- half-life [21]: 15.7 h
- Activity [8]: Dose-dependent effect
- IC50 [1]: 115 nM
- Cmax [22]: 272 ng/mL
- IC50 [2]: 58 nM
- MRT [23]: 22.7 h
- Tmax [24]: 3.3 h
- inhibition [25]: Active
- Activity [9]: Non-Toxic
- IC50 [3]: 82 nM
- MTD [11]: 750 mg/kg
- Ki [26]: 23 nM
- inhibition [27]: Active
- Activity [12]: Active
- Activity [13]: Active

SMILES: Brc1ccc(CNC2CCN(Cc3ccccc3)C2)cc1 (stereo not drawn)
- Papp at 18 h, 25 ug/ml [6]: 5.1 ×10⁻⁶ cm/s
- IC50 [1]: 648 nM
- IC50 [2]: 133 nM
- IC50 [3]: 758 nM

SMILES: Clc1ccc(/C=N\C2CCN(Cc3ccccc3)C2)cc1 (stereo not drawn)
- IC50 [1]: 1260 nM
- IC50 [2]: 1240 nM
- IC50 [3]: 1180 nM

SMILES: Fc1ccc(CNC2CCN(Cc3ccccc3)C2)cc1 (stereo not drawn)
- Papp at 18 h, 25 ug/ml [6]: 4.2 ×10⁻⁶ cm/s
- IC50 [1]: 824 nM
- IC50 [2]: 149 nM
- IC50 [3]: 791 nM

SMILES: Cc1c(OCc2ccccc2)cccc1N1CCN(CCNC2CCN(Cc3ccccc3)C2)CC1 (stereo not drawn)
- IC50 [28]: 7780 nM

SMILES: FC(F)(F)c1ccc(CNC2CCN(Cc3ccccc3)C2)cc1 (stereo not drawn)
- Papp at 18 h, 25 ug/ml [6]: 6.3 ×10⁻⁶ cm/s
- IC50 [1]: 975 nM
- IC50 [2]: 128 nM
- IC50 [3]: 968 nM

SMILES: Oc1ccccc1/C=N\C1CCN(Cc2ccccc2)C1 (stereo not drawn)
- IC50 [2]: > 10000 nM
- IC50 [3]: 4150 nM

SMILES: Oc1ccc(/C=N\C2CCN(Cc3ccccc3)C2)c(O)c1 (stereo not drawn)
- IC50 [1]: 4430 nM
- IC50 [2]: 3680 nM
- IC50 [3]: 3280 nM

SMILES: Oc1ccc(/C=N\C2CCN(Cc3ccccc3)C2)cc1 (stereo not drawn)
- IC50 [1]: 4580 nM
- IC50 [2]: 5630 nM
- IC50 [3]: 2360 nM

SMILES: Cc1ccc(CNC2CCN(Cc3ccccc3)C2)cc1 (stereo not drawn)
- IC50 [1]: 2240 nM
- IC50 [2]: 6390 nM
- IC50 [3]: 8750 nM
